Values of other authors, collected in PMC11083148, “Structure–Activity Relationship Studies on Highly Functionalized Pyrazole Hydrazones and Amides as Antiproliferative and Antioxidant Agents” (International Journal of Molecular Sciences, 2024).

Parameters: method as in PMID 32932211
Details: ABTS scavenging assay; cited from earlier work

Compound: Nc1c(C(F)(F)F)n[nH]c1-c1ccccc1 [IIa]
- IC50: 14.1 µM
- Trolox equivalent antioxidant capacity (TEAC): 1.35
